Assay results from patent US6294564A, “Benzimidazoles and benzoxazoles” (Byk Gulden Lomberg Chemische Fabrik GmbH, priority 1998, dated 2001).

Tested on: PDE4
Assay: Inhibition of PDE4 Activity (activity test according to Bauer and Schwabe adapted to microtitre plates)
Assay type: biochemical
Conditions: Inhibition of the PDE4 Activity; inhibitory concentration as -log IC50 (mol/l)

| SMILES | -log IC50 |
| --- | --- |
| COc1ccc(-c2nc3ccc(C(=O)O)cc3o2)c2c1OC1(CCCC1)C2 [compound 8, 2-(2,3-Dihydro-7-methoxybenzofuran-2-spiro-1'-cyclopentan-4-yl)benzoxazole-6-carboxylic acid] | 8.21 |
| COc1ccc(-c2nc3ccc(C(=O)O)cc3o2)c2c1OC1(CCOCC1)C2 [compound 11, 2-(2,3-Dihydro-7-methoxybenzofuran-2-spiro-4'-tetrahydropyran-4-yl) benzoxazole-6-carboxylic acid] | 6.85 |
| COc1ccc(-c2nc3cc(C(=O)O)ccc3o2)c2c1OC1(CCOCC1)C2 [compound 6, 2-(2,3-Dihydro-7-methoxybenzofuran-2-spiro-4'-tetrahydropyran-4-yl)benzoxazole-5-carboxylic acid] | 7.05 |
| COc1ccc(-c2nc3cc(C(=O)O)ccc3o2)c2c1OC1(CCCC1)C2 [compound 3, 2-(2,3-Dihydro-7-methoxybenzofuran-2-spiro-1'-cyclopentan-4-yl)benzoxazole-5-carboxylic acid] | 7.65 |
| COc1ccc(-c2nc3cc(C(=O)O)ccc3[nH]2)c2c1OC1(CCCC1)C2 [compound 1, 2-(2,3-Dihydro-7-methoxybenzofuran-2-spiro-1'-cyclopentan-4-yl)benzimidazole-5-carboxylic acid] | 7.87 |
| COc1ccc(-c2nc3cc(C(N)=O)ccc3o2)c2c1OC1(CCOCC1)C2 [compound 7, 2-(2,3-Dihydro-7-methoxybenzofuran-2-spiro-4'-tetrahydropyran-4-yl)benzoxazole-5-carboxamide] | 6.80 |
| COc1ccc(-c2nc3ccc(C(N)=O)cc3o2)c2c1OC1(CCOCC1)C2 [compound 12, 2-(2,3-Dihydro-7-methoxybenzofuran-2-spiro-4'-tetrahydropyran-4-yl)benzoxazole-6-carboxamide] | 6.42 |
| COc1ccc(-c2nc3ccc(C(=O)OCCN4CCOCC4)cc3o2)c2c1OC1(CCCC1)C2 [compound 9, 2-morpholin-4-ylethyl 2-(2,3-dihydro-7-methoxybenzofuran-2-spiro-1'-cyclopentan4-yl)-benzoxazole-6-carboxylate] | 6.90 |
| COc1ccc(-c2nc3cc(C(N)=O)ccc3[nH]2)c2c1OC1(CCCC1)C2 [compound 2, 2-(2,3-Dihydro-7-methoxybenzofuran-2-spiro-1'-cyclopentan-4-yl)benzimidazole-5-carboxamide] | 7.69 |
